Test results from ChEMBL document CHEMBL6127019, “Exploitation of the nitro- and/or 4-Trifluoromethyl-decorated phenyl fragment to develop small inhibitors of Alpha-Syn fibril aggregation” (Bioorg Med Chem Lett, 2024).
Active and inactive are the calls of the source. The calls are words filed in the database; no cut-off is given here.

target: Alpha-synuclein (Homo sapiens) (UniProt P37840); experiment: Inhibition of alpha alpha-synuclein (unknown origin) fibril aggregation assessed as reduction in TH-T fluorescent signal at 100 uM measured after 5 to 40 hrs by ThT fluorescence assay; conditions: time 5-40 hrs

SMILES | inhibition
Cn1nnnc1SCc1ccccc1[N+](=O)[O-] | inactive
O=[N+]([O-])c1cc(C(F)(F)F)cc([N+](=O)[O-])c1NCCCO | inactive
O=[N+]([O-])c1cc(C(F)(F)F)cc([N+](=O)[O-])c1Sc1c(Cl)c(Cl)nc(Cl)c1Cl | inactive
O=[N+]([O-])c1cc(C(F)(F)F)cc([N+](=O)[O-])c1N1CCN(CCO)CC1 | inactive
Cn1nnnc1SCc1ccc(C(F)(F)F)cc1 | inactive
O=C(O)CSCc1ccc(C(F)(F)F)cc1 | inactive
Cn1cnnc1SCc1ccc(C(F)(F)F)cc1 | inactive
Cn1nnnc1Sc1c([N+](=O)[O-])cc(C(F)(F)F)cc1[N+](=O)[O-] | Active

The remaining lines, values ahead:

inhibition | SMILES
inactive | COc1cccc(Nc2c([N+](=O)[O-])cc(C(F)(F)F)cc2[N+](=O)[O-])c1
inactive | O=[N+]([O-])c1cc([N+](=O)[O-])c(Nc2ccccc2)c(C(F)(F)F)c1
inactive | O=[N+]([O-])c1cc(C(F)(F)F)cc([N+](=O)[O-])c1Nc1ccc(F)cc1
inactive | O=[N+]([O-])c1cc(C(F)(F)F)cc([N+](=O)[O-])c1NC1=NN(c2ccccc2)CC1
inactive | O=C(COc1ccccc1)Nc1c([N+](=O)[O-])cc(C(F)(F)F)cc1[N+](=O)[O-]
Active | N#Cc1c(C(F)(F)F)c([N+](=O)[O-])c(-c2cccc([N+](=O)[O-])c2)[nH]c1=O
inactive | Cc1cccc(N2CCC(Nc3c([N+](=O)[O-])cc(C(F)(F)F)cc3[N+](=O)[O-])=N2)c1
inactive | O=[N+]([O-])c1cc(C(F)(F)F)cc([N+](=O)[O-])c1N1CCN(c2ncnc3ccccc23)CC1
inactive | Cc1cc(C)nc(Sc2c([N+](=O)[O-])cc(C(F)(F)F)cc2[N+](=O)[O-])n1
inactive | Cc1cc(C)c(Nc2c([N+](=O)[O-])cc(C(F)(F)F)cc2[N+](=O)[O-])c(C)c1

target: Alpha-synuclein (Homo sapiens) (UniProt P37840); experiment: Inhibition of alpha alpha-synuclein (unknown origin) fibril aggregation assessed as reduction in TH-T fluorescent signal at 100 uM measured after 5 to 40 hrs by ThT fluorescence assay relative to control; conditions: time 5-40 hrs

SMILES | inhibition
O=[N+]([O-])c1cc(C(F)(F)F)cc([N+](=O)[O-])c1Nc1cccc(O)c1 | 68%
O=[N+]([O-])c1cc(C(F)(F)F)cc([N+](=O)[O-])c1F | 57%
